Measured values reported in PubChem BioAssay (NCI).
“And” between values parts separate entries of the source, which are not always exact repeats. Equal values may be shown once.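 In this assay, cells in 96-well plates receive the compound at five concentrations for 48 hours. Endpoints are linearly interpolated between the surrounding concentrations. GI50 = concentration required for 50% inhibition of growth. TGI is the concentration that stops growth completely.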

Assays:
Assay in all cases: DTP human tumour cell line panel, 48 h
[1] = test system: SNB-75 CNS
[2] = test system: SNB-19 CNS
[3] = test system: EKVX NSCLC
[4] = test system: KM20L2 colon
[5] = test system: DMS 114 small cell lung
[6] = test system: HCT-116 colon
[7] = test system: OVCAR-3 ovarian
[8] = test system: A498 renal
[9] = test system: A549 NSCLC
[10] = test system: MCF7 breast

Row | Compound | TGI [1] [µM] | TGI [2] [µM] | TGI [3] [µM] | TGI [4] [µM] | TGI [5] [µM] | TGI [6] | TGI [7] [µM] | TGI [8] [µM] | TGI [9] [µM] | TGI [10] [µM] | GI50 [5] | GI50 [6] [µM] | GI50 [10] [µM] | GI50 [7] | GI50 [9] [µM]
1 | O=C(NO)C(=O)Nc1ccc(Cl)cc1[N+](=O)[O-] | > 100 | > 100 | > 100 | > 100 | > 100 | > 100 µM | > 100 | > 100 | > 100 |  |  |  |  |  | 
2 | CC1=C(c2cc(C(=O)Nc3cccc(C(F)(F)F)c3)ncn2)Sc2ccccc2N1 | > 100 | > 100 | > 100 | > 100 | > 100 | > 100 µM | > 100 | > 100 | > 100 |  |  |  |  |  | 
3 | OC(c1ccccn1)C1CNc2ccccc21 (stereo unspecified) | > 100 | > 100 | > 100 | > 100 | > 100 | > 100 µM | > 100 | > 100 | > 100 |  |  |  |  |  | 
4 | CC(=O)NNc1nc(C)c(C(/C=C/c2ccc(Cl)cc2)=N/NC(=O)C[N+](C)(C)C)s1 | > 100 | > 100 | > 100 | > 100 | > 100 | > 100 µM | > 100 | > 100 | > 100 |  |  |  |  |  | 
5 | COC(=O)C(Cc1nc2ccc(Cl)cc2[nH]c1=O)/C(=N/NC(N)=O)C(=O)Nc1ccc(Cl)cc1 (stereo unspecified) | > 100 | > 100 | > 100 | > 100 | > 100 | > 100 µM | > 100 | > 100 | > 100 |  |  |  |  |  | 
6 | N#CC1(C=O)c2ccccc2C=CN1C(=O)c1ccccc1 (stereo unspecified) | 66.9 | > 100 | > 100 | > 100 | 49 | > 100 µM | 52.8 | > 100 | > 100 |  |  |  |  |  | 
7 | Cn1c2c(c3ccccc31)CCN(CCCCN1CCN(c3cccc(Cl)c3)CC1)C2=O | 9.61 | 42.8 | 69.2 | 15.5 | 10.7 | 19.4 µM | 34 | 27.7 | 70.2 |  |  |  |  |  | 
8 | COc1cc([C@@H]2c3cc4c(cc3[C@@H](NC(=O)c3cccc(F)c3)C3COC(=O)[C@@H]32)OCO4)cc(OC)c1O (stereo partly specified) | 5.24 | 14.2 | 7.49 | 6.89 | 5.2 | 13.8 µM | 17.4 | 4.91 | 2.62 |  |  |  |  |  | 
9 | Cc1ccc(C)c(NC(=O)CCc2nc(=S)[nH][nH]2)c1 | > 100 | > 100 | > 100 | > 100 | > 100 | > 100 µM | > 100 | > 100 | > 100 |  |  |  |  |  | 
10 | O=C(O)Cn1c(=O)[nH]c(=O)c2c1ncn2Cc1ccccc1 | > 100 | > 100 | > 100 | > 100 | > 100 | > 100 µM | > 100 | > 100 | > 100 |  |  |  |  |  | 
11 | O=C(NNC(=O)c1cc(/C=C/c2cccc([N+](=O)[O-])c2)[nH]c(=S)n1)Nc1ccc(Cl)cc1 | > 100 |  | > 100 | > 100 | 97.4 | 60.9 µM | > 100 | > 100 | > 100 |  |  |  |  |  | 
12 | COC12CC(=O)C(C(C)=O)=C(O)C1(C)c1c(OC(C)=O)c(C)c(O)c(C(C)=O)c1O2 (stereo unspecified) | 80.6 | > 100 | 93.6 | > 100 | > 100 | > 100 µM | 69.9 | 78.1 | > 100 |  |  |  |  |  | 
13 | O=C(NCCCCCCCCNC(=O)c1cccc2ccccc12)c1cccc2ccccc12 | 13.2 | > 59.5 | > 91.7 | > 100 | > 100 | > 83.4 µM | > 79.9 | 56.8 | > 100 | > 100 |  |  |  |  | 
14 | COc1ccc(C(=O)/C=C/c2ccc(OCC(=O)N3CCN(c4ccccc4)CC3)cc2)cc1 | 62.5 | 65.1 | > 90.4 | > 100 | > 100 | > 100 µM | > 100 | > 93.9 | > 100 | > 100 |  |  |  |  | 
15 | O=C1/C(=C/c2ccccc2)CN(C(=O)OCc2ccccc2)C/C1=C\c1ccccc1 | > 31.6 | > 46.4 | > 31.6 | 18.9 | 21 | 1.63 µM and 2.63 µM | 10 | > 31.6 | > 46.4 | 37.2 | 4.26 µM | 0.484 |  |  | 
16 | COc1cc(-c2cc(=O)c3cc(C)c(C)c(C(=O)O)c3o2)cc(OC)c1OC | 55.9 | > 100 | > 100 | > 100 | > 100 | > 100 µM | > 100 | > 100 | > 100 |  |  |  |  |  | 
17 | CN(C)c1n/c(=N/c2ncn[nH]2)ss1 | > 100 | > 100 | > 100 | > 100 | > 100 | > 100 µM |  | > 100 | > 100 |  |  |  |  |  | 
18 | Nc1nc(N)c2nc(CNc3ccc(C(=O)NC(CCCNC(=O)c4ccccc4C(=O)O)C(=O)O)cc3)cnc2n1 (stereo unspecified) | > 100 | > 100 | > 100 | > 100 | > 100 | > 100 µM | > 100 | > 100 | > 100 | > 100 | < 0.01 µM and 0.000327 µM | 0.00028 | 0.00363 | < 0.0157 µM and 0.0676 µM | 0.00379
